Laboratory results published in US7872036B2, “3-triazolylphenyl sulfide derivative and insecticide, miticide and nematicide containing it as an active ingredient” (Kumiai Chemical Industry Co., Ltd., priority 2004, dated 2011).

Assays:
[1] = system: southern root-knot nematodes; assay: Nemastatic test on southern root-knot nematodes; assay type: in vivo, Meloidogyne sp.; conditions: diluted solution 20 ppm mixed 1:1 with suspension of second stage larvae, 25° C., 5 days
Protocol: Compounds of the present invention (5 parts) and Tween 20 (tradename for polyoxyethylene sorbitan monolaurate) (1 part) as a spreader were dissolved n N,N-dimethylformamide (94 parts) to prepare 5% emulsifiable concentrates of the compounds of the present invention. Distilled water was added to the emulsifiable concentrates to prepare diluted solutions having a concentration of the compounds of the present invention of 20 ppm. 0.5 ml of the diluted solutions and 0.5 ml of water suspensions containing 100 second stage larvae of southern root-knot nematodes were mixed, and the mixture were placed in a thermostatic chamber at 25° C. for 5 days, and the survivors were counted for calculation of the nemastatic degree by using Equation 3. The test was carried out by two series system.

[2] = system: brown planthoppers; assay: Insecticidal test on brown planthoppers; assay type: in vivo, Nilaparvata lugens; conditions: active ingredient 500 ppm, germinating rice immersed, 4th-instar larvae, 25° C., 6 days
Protocol: Wettable powders were prepared in accordance with Formulation Example 2 and diluted with water to an active ingredient concentration of 500 ppm. Germinating rice was immersed in the resulting solutions and put in a plastic cup with a capacity of 60 ml. Ten 4th-instar larvae of brown planthoppers were released to the cup, and the cup was covered and placed in a thermostatic chamber at 25° C. for 6 days, and the survivors were counted for calculation of the insecticidal degree by using Equation 1. The test was carried out by one series system.

| Compound | Nemastatic degree (%) [1] | Insecticidal degree (%) [2] |
| --- | --- | --- |
| Cc1cc(F)c(-n2nc(C(F)(F)C(F)(F)C(F)(F)F)nc2N)cc1[S+]([O-])CC(F)(F)F (racemic) [Compound 175] | 97% |  |
| Cc1cc(F)c(-n2nc(C(F)(F)F)nc2NC(=O)C(F)F)cc1[S+]([O-])CC(F)(F)F (racemic) [Compound 200] |  | 100% |
| Cc1cc(F)c(-n2nc(C(F)(F)F)nc2C(N)=O)cc1[S+]([O-])CC(F)(F)F (racemic) [Compound 208] | 100% |  |
| Cc1cc(F)c(-n2nc(C(F)(F)F)nc2N)cc1SCC1CC1 [Compound 3] | 100% |  |
| CSc1nc(N)n(-c2cc(SCC(F)(F)F)c(C)cc2F)n1 [Compound 15] | 100% |  |
| Cc1cc(F)c(-n2nc([S+](C)[O-])nc2N)cc1SCC(F)(F)F (stereo not shown) [Compound 17] | 99% | 100% |
| Cc1cc(F)c(-n2nc(S(C)(=O)=O)nc2N)cc1[S+]([O-])CC(F)(F)F (stereo not shown) [Compound 20] | 92% | 100% |
| CCSc1nc(N)n(-c2cc(SCC(F)(F)F)c(C)cc2F)n1 [Compound 21] | 100% |  |
| CC[S+]([O-])c1nc(N)n(-c2cc(SCC(F)(F)F)c(C)cc2F)n1 (stereo not shown) [Compound 23] | 100% | 90% |
| CC[S+]([O-])c1nc(N)n(-c2cc([S+]([O-])CC(F)(F)F)c(C)cc2F)n1 (stereo not shown) [Compound 24] |  | 90% |
| CCS(=O)(=O)c1nc(N)n(-c2cc([S+]([O-])CC(F)(F)F)c(C)cc2F)n1 (stereo not shown) [Compound 26] |  | 90% |
| Cc1cc(F)c(-n2nc(SC(F)F)nc2N)cc1SCC(F)(F)F [Compound 27] | 100% | 100% |
| Cc1cc(F)c(-n2nc(SC(F)(F)F)nc2N)cc1SCC(F)(F)F [Compound 31] | 100% | 100% |
| CNc1nc(C(F)(F)F)nn1-c1cc(SCC(F)(F)F)c(C)cc1F [Compound 39] | 100% | 100% |
| CCc1nc(N)n(-c2cc(SCC(F)(F)F)c(C)cc2F)n1 [Compound 49] |  | 100% |
| CCNc1nc(C(F)(F)F)nn1-c1cc(SCC(F)(F)F)c(C)cc1F [Compound 59] | 100% | 100% |
| C#CCNc1nc(C(F)(F)F)nn1-c1cc(SCC(F)(F)F)c(C)cc1F [Compound 65] | 100% | 100% |
| CC(=O)Nc1nc(C(F)(F)F)nn1-c1cc(SCC(F)(F)F)c(C)cc1F [Compound 75] | 94% | 100% |
| COC(=O)Nc1nc(C(F)(F)F)nn1-c1cc(SCC(F)(F)F)c(C)cc1F [Compound 79] | 94% | 100% |
| Cc1cc(F)c(-n2nc(C(F)(F)F)nc2NC(=O)N(C)C)cc1SCC(F)(F)F [Compound 83] |  | 10% |
| CNc1nc(C(F)(F)F)nn1-c1cc(SCC(F)(F)F)c(C)cc1Cl [Compound 97] | 97% |  |
| CNc1nc(SC(F)(F)C(F)(F)F)nn1-c1cc(SCC(F)(F)F)c(C)cc1F [Compound 101] | 98% | 100% |
| Cc1cc(F)c(-n2nc(C(C)(C)C#N)nc2N)cc1SCC(F)(F)F [Compound 103] | 94% |  |
| Cc1nc(N)n(-c2cc(SCC(F)(F)F)c(C)cc2F)n1 [Compound 105] |  | 90% |
| Cc1cc(F)c(-n2nc(C(C)C)nc2N)cc1SCC(F)(F)F [Compound 110] | 97% |  |
| CC(=O)Nc1nc(C(C)(C)C)nn1-c1cc(SCC(F)(F)F)c(C)cc1F [Compound 112] |  | 90% |
| CCc1nc(N)n(-c2cc(SCC(F)(F)F)c(C)cc2F)n1 [Compound 116] | 97% |  |
| Cc1ccc(-n2nc(C(F)(F)F)nc2N)cc1SCC(F)(F)F [Compound 124] | 100% | 100% |

| Compound | Nemastatic degree (%) [1] | Insecticidal degree (%) [2] |
| --- | --- | --- |
| Nc1nc(C(F)(F)F)nn1-c1ccc(Cl)c(SCC(F)(F)F)c1 [Compound 126] | 94% |  |
| CCN(CC)c1nc(C(F)(F)F)nn1-c1cc(SCC(F)(F)F)c(C)cc1F [Compound 128] |  | 100% |
| Cc1cc(F)c(-n2nc(SCC(F)(F)F)nc2N)cc1SCC(F)(F)F [Compound 130] | 100% |  |
| CCC[S+]([O-])c1nc(N)n(-c2cc([S+]([O-])CC(F)(F)F)c(C)cc2F)n1 (stereo not shown) [Compound 137] |  | 100% |
| Cc1cc(F)c(-n2nc(SCC#N)nc2N)cc1SCC(F)(F)F [Compound 140] | 99% |  |
| Cc1cc(F)c(-n2nc(SCC#N)nc2N)cc1[S+]([O-])CC(F)(F)F (stereo not shown) [Compound 141] | 97% | 100% |
| CNc1nc(C(F)(F)F)nn1-c1cc(SCC(F)(F)F)c(C)cc1C [Compound 146] | 98% |  |
| C#CCSc1nc(N)n(-c2cc(SCC(F)(F)F)c(C)cc2F)n1 [Compound 148] | 99% | 100% |
| C#CC[S+]([O-])c1nc(N)n(-c2cc(SCC(F)(F)F)c(C)cc2F)n1 (stereo not shown) [Compound 150] |  | 100% |
| CC(=O)N(C)c1nc(SCC(F)(F)F)nn1-c1cc(SCC(F)(F)F)c(C)cc1F [Compound 158] |  | 90% |
| CNc1nc(SCC(F)(F)F)nn1-c1cc(SCC(F)(F)F)c(C)cc1F [Compound 160] | 100% | 100% |
| Cc1cc(F)c(-n2nc(C(F)(F)F)nc2NN)cc1[S+]([O-])CC(F)(F)F (stereo not shown) [Compound 163] |  | 100% |
| Cc1cc(F)c(-n2nc(C(F)(F)F)nc2NCC#N)cc1SCC(F)(F)F [Compound 164] | 100% | 100% |
| Cc1cc(F)c(-n2nc(C(F)(F)F)nc2NCC#N)cc1[S+]([O-])CC(F)(F)F (stereo not shown) [Compound 165] |  | 100% |
| CNC(=O)Nc1nc(C(F)(F)F)nn1-c1cc(SCC(F)(F)F)c(C)cc1F [Compound 168] | 100% | 100% |
| Cc1cc(F)c(-n2nc(C(F)(F)F)nc2N(C)N)cc1SCC(F)(F)F [Compound 170] | 100% | 100% |
| Cc1cc(F)c(-n2nc(C(F)(F)C(F)(F)C(F)(F)F)nc2N)cc1SCC(F)(F)F [Compound 174] | 100% | 90% |
| Cc1cc(F)c(-n2nc(SC(F)(F)C(F)(F)F)nc2N)cc1SCC(F)(F)F [Compound 176] | 97% | 90% |
| Cc1cc(F)c(-n2nc(C(C(F)(F)F)C(F)(F)F)nc2N)cc1SCC(F)(F)F [Compound 182] | 91% |  |
| C#CCNc1nc(SCC(F)(F)F)nn1-c1cc(SCC(F)(F)F)c(C)cc1F [Compound 184] |  | 100% |
| CCC(=O)Nc1nc(C(F)(F)F)nn1-c1cc(SCC(F)(F)F)c(C)cc1F [Compound 186] |  | 100% |
| Cc1cc(F)c(-n2nc(C(F)(F)F)nc2NC(=O)CCl)cc1SCC(F)(F)F [Compound 189] |  | 100% |
| C#CCNc1nc(SC(F)(F)C(F)(F)F)nn1-c1cc(SCC(F)(F)F)c(C)cc1F [Compound 193] | 100% | 100% |
| Cc1cc(F)c(-n2nc(C(F)(F)F)nc2NC(=O)NC(C)C)cc1SCC(F)(F)F [Compound 201] |  | 100% |
| COC(=O)c1nc(C(F)(F)F)nn1-c1cc(SCC(F)(F)F)c(C)cc1F [Compound 203] | 92% |  |
| Cc1cc(F)c(-n2nc(C(F)(F)F)nc2C(N)=O)cc1SCC(F)(F)F [Compound 207] | 100% |  |
| Cc1cc(F)c(-n2nc(C(F)(F)F)nc2C#N)cc1SCC(F)(F)F [Compound 209] | 100% |  |
